Literature values in patent US20250129016A1, “[…] FOR RADI[…] ARENES AND USE THEREOF” (THE UNIVERSITY OF NORTH CAROLINA AT CHAPEL HILL, priority 2023, published 2025).

Details: previously reported

## COc1cc2c(c(OC)c1OC)-c1ccc(OC)c(=O)cc1[C@@H](NC(C)=O)CC2 [39a, Colchicine]
  route of excretion: excreted primarily through the biliary system, intestines, and kidneys
